Paper PMC10406430 (Neuro-Oncology Advances, 2023)
Like-named read-outs stand apart in the source and are kept apart here. Marks after values point to notes of the source that are not given here.

Key:
[1] = Plasma pharmacokinetics of PAC-1 and TMZ (LC-MS/MS, non-compartmental analysis); assay type: in vivo, human; conditions: for AUC(0-inf) / CL/F / Cmax / Tmax / half-life: human, plasma, po; for AUC(0-inf): read-out: AUC0-∞, geometric mean (geometric CV%); for CL/F: read-out: CL/F, geometric mean (geometric CV%) (converted); for Cmax: read-out: Cmax, geometric mean (geometric CV%); for Tmax: read-out: Tmax, median (range); for half-life: read-out: t1/2-λ, geometric mean (geometric CV%) (converted)
Method: Pharmacokinetics (PK) were assessed in each dose cohort for PAC-1 following doses administered on days 7 (without TMZ) and 12 (with TMZ) of the first cycle and TMZ on day 12 of cycle 1. Both drugs were administered under fasting conditions in the morning for PAC-1 and morning or evening for TMZ. To facilitate the PK study and amplify any PK interaction between drugs, the administration of TMZ was standardized to occur in the morning on cycle 1, day 12 two hours before PAC-1. Plasma samples were collected on the mornings of days 7 and 12 of cycle 1 prior to oral ingestion of TMZ (day 12 only), 1 hour (day 12) or immediately (day 7) before administration of PAC-1 and at 0.5, 1, 2, 4, 6, 8, 10, and 24 hours after ingestion of PAC-1 (both days). The PAC-1 and TMZ concentrations in plasma were determined by validated high-performance liquid chromatography and tandem mass spectrometry (LC-MS/MS) assays. Non-compartmental analysis of the PAC-1 and TMZ plasma concentration-time data was performed using WinNonlin version 8.1 (Certara. L.P., Princeton, NJ). The analysis occurred at steady state for PAC-1 and non-steady state conditions for TMZ. Parameters included: maximum plasma concentration (Cmax), time at Cmax (Tmax), minimum plasma concentration at steady-state (Css,min), area under the PAC-1 plasma concentration-time curve over the steady-state dosing interval (AUC0-τ,ss), area under the TMZ plasma concentration-time curve from time zero to infinity (AUC0-∞), oral clearance (CL/F), volume of distribution (V/F), and terminal phase half-life (t1/2).
The PK parameters were logarithmically (natural) transformed and Css-max, Css-min, and AUC0-τ,ss normalized for a 500 mg dose across dose groups for the analysis by multiplying the parameter by the quotient of 500 mg divided by the actual dose. […] Lack of interaction was concluded when the 90% CI for the ratio was contained within the conventional bioequivalence range of 0.80 to 1.25.

human glioma cell lines = conditions: single agent and in combination with TMZ; cited from earlier work
[2] = tested on: intracranial models in rodents; conditions: syngeneic and xenograft models, single agent and in combination with TMZ; cited from earlier work
systemic solid tumors = conditions: cited from earlier work
[3] = parameters: method as in earlier work; conditions: animal studies and a single clinical trial; ref 1-3 (supplement list); cited from earlier work
[4] = mice; consistent with cLogBB prediction models; cited from earlier work
glioma = conditions: PAC-1 in combination with TMZ and radiation; cited from earlier work
[5] = tested on: P-glycoprotein efflux pump; conditions: cited from earlier work
[6] = tested on: cytochrome P450 isozymes (CYP) 2C19, 2D6, and 3A4; test: In vitro studies of hepatic metabolism pathways; assay type: in vitro ADME; conditions: preliminary evidence from in vitro studies (unpublished); CYP 2C19, 2D6, 3A4
[7] = 150 mg/m2, TMZ 150 mg/m^2 oral with PAC-1 375 mg/day
[8] = 150 mg/m2, TMZ 150 mg/m^2 oral with PAC-1 500 mg/day
[9] = 150 mg/m2, TMZ 150 mg/m^2 oral with PAC-1 625 mg/day
[10] = PAC-1 375 mg/day oral, Cycle 1 Day 7 (alone)
[11] = PAC-1 375 mg/day oral, Cycle 1 Day 12 (with TMZ)
[12] = PAC-1 500 mg/day oral, Cycle 1 Day 7 (alone)
[13] = PAC-1 500 mg/day oral, Cycle 1 Day 12 (with TMZ)
[14] = PAC-1 625 mg/day oral, Cycle 1 Day 7 (alone)
[15] = PAC-1 625 mg/day oral, Cycle 1 Day 12 (with TMZ)
[16] = PAC-1, Cycle 1 Day 12 (with TMZ)/Cycle 1 Day 7 (alone)
[17] = PAC-1, Cycle 1 Day 12 (with TMZ)/Cycle 1 Day 7 (alone), normalized to 500 mg

Cn1nnc2c(C(N)=O)ncn2c1=O [temozolomide, reference compound]
impact of PAC-1 dose on PK parameters of TMZ (mixed effects analyses) ([1]; PAC-1 375, 500, 625 mg/day): did not significantly (p > 0.05) impact any PK parameters of TMZ
V/F, geometric mean (geometric CV%) ([1]; TMZ 150 mg/m^2 oral with PAC-1 375 mg/day): 0.40 (16.7) L/kg
V/F, geometric mean (geometric CV%) ([1]; TMZ 150 mg/m^2 oral with PAC-1 500 mg/day): 0.44 (15.0) L/kg
V/F, geometric mean (geometric CV%) ([1]; TMZ 150 mg/m^2 oral with PAC-1 625 mg/day): 0.44 (15.7) L/kg
AUC(0-inf) [1, 7]: 22800 ng·h/mL
CL/F [1, 7]: 2.52 mL/min/kg
Cmax [1, 7]: 7310 ng/mL
Tmax [1, 7]: 1 h
half-life [1, 7]: 1.86 h
AUC(0-inf) [1, 8]: 23800 ng·h/mL
CL/F [1, 8]: 2.63 mL/min/kg
Cmax [1, 8]: 7750 ng/mL
Tmax [1, 8]: 0.98 h
half-life [1, 8]: 1.93 h
AUC(0-inf) [1, 9]: 23900 ng·h/mL
CL/F [1, 9]: 2.67 mL/min/kg
Cmax [1, 9]: 7630 ng/mL
Tmax [1, 9]: 1 h
half-life [1, 9]: 1.92 h

C=CCc1cccc(/C=N/NC(=O)CN2CCN(Cc3ccccc3)CC2)c1O [PAC-1, procaspase-activating compound-1]
activity against human glioma cell lines (human glioma cell lines): promising activity
activity in intracranial models in rodents [2]: promising activity
increase in PAC-1 CL/F with dexamethasone co-administration ([1]; 375 and 500 mg/day groups): approximately 18%
AUCss,0-τ, geometric mean (geometric CV%) [1, 10]: 23434 (12.0) h*ng/ml
CL/F, geometric mean (geometric CV%) [1, 10]: 185 (26.6) ml/h/kg
Cmax, geometric mean (geometric CV%) [1, 10]: 1728 (19.6) ng/ml
Css-min, geometric mean (geometric CV%) [1, 10]: 647.8 (11.0) ng/ml
Tmax, median (range) [1, 10]: 3.00 (1.98-6.00) h
V/F, geometric mean (geometric CV%) [1, 10]: 6.1 (36.1) L/kg
AUCss,0-τ, geometric mean (geometric CV%) [1, 11]: 22519 (13.8) h*ng/ml
CL/F, geometric mean (geometric CV%) [1, 11]: 193 (32.9) ml/h/kg
Cmax, geometric mean (geometric CV%) [1, 11]: 1802 (19.7) ng/ml
Css-min, geometric mean (geometric CV%) [1, 11]: 525.4 (12.3) ng/ml
Tmax, median (range) [1, 11]: 3.00 (1.98 - 9.83) h
V/F, geometric mean (geometric CV%) [1, 11]: 5.4 (27.3) L/kg
t1/2-λ, geometric mean (geometric CV%) [1, 11]: 20.0 (12.0) h
AUCss,0-τ, geometric mean (geometric CV%) [1, 12]: 32823 (28.0) h*ng/ml
CL/F, geometric mean (geometric CV%) [1, 12]: 203 (38.1) ml/h/kg
Cmax, geometric mean (geometric CV%) [1, 12]: 3026 (34.0) ng/ml
Css-min, geometric mean (geometric CV%) [1, 12]: 776.8 (27.9) ng/ml
Tmax, median (range) [1, 12]: 2.34 (0.50- 5.92) h
V/F, geometric mean (geometric CV%) [1, 12]: 5.1 (53.0) L/kg
t1/2-λ, geometric mean (geometric CV%) [1, 12]: 17.6 (18.9) h
AUCss,0-τ, geometric mean (geometric CV%) [1, 13]: 34274 (13.2) h*ng/ml
CL/F, geometric mean (geometric CV%) [1, 13]: 194 (26.0) ml/h/kg
Cmax, geometric mean (geometric CV%) [1, 13]: 2938 (32.2) ng/ml
Css-min, geometric mean (geometric CV%) [1, 13]: 770.0 (19.6) ng/ml
Tmax, median (range) [1, 13]: 2.01 (1.92 - 3.07) h
V/F, geometric mean (geometric CV%) [1, 13]: 5.0 (40.3) L/kg
t1/2-λ, geometric mean (geometric CV%) [1, 13]: 17.9 (31.1) h
AUCss,0-τ, geometric mean (geometric CV%) [1, 14]: 24634 (45.2) h*ng/ml
CL/F, geometric mean (geometric CV%) [1, 14]: 322 (38.0) ml/h/kg
Cmax, geometric mean (geometric CV%) [1, 14]: 1876 (47.5) ng/ml
Css-min, geometric mean (geometric CV%) [1, 14]: 565.9 (47.4) ng/ml
Tmax, median (range) [1, 14]: 1.98 (0.82 – 2.00) h
V/F, geometric mean (geometric CV%) [1, 14]: 8.7 (40.6) L/kg
t1/2-λ, geometric mean (geometric CV%) [1, 14]: 18.7 (42.9) h
AUCss,0-τ, geometric mean (geometric CV%) [1, 15]: 21854 (39.7) h*ng/ml
CL/F, geometric mean (geometric CV%) [1, 15]: 363 (31.2) ml/h/kg
Cmax, geometric mean (geometric CV%) [1, 15]: 2124 (57.9) ng/ml
Css-min, geometric mean (geometric CV%) [1, 15]: 480.0 (40.4) ng/ml
Tmax, median (range) [1, 15]: 1.03 (1.00 - 4.17) h
V/F, geometric mean (geometric CV%) [1, 15]: 9.7 (17.0) L/kg
t1/2-λ, geometric mean (geometric CV%) [1, 15]: 18.5 (32.9) h
PK interactions between PAC-1 and TMZ ([1]; PAC-1 375, 500 or 625 mg/day with TMZ 150 mg/m^2): did not identify PK interactions
CL/F, Geometric Least-Square Mean Ratio (90%CI) [1, 16]: 1.07 (0.98, 1.17)
t1/2-λ, Geometric Least-Square Mean Ratio (90%CI) [1, 16]: 1.04 (0.90, 1.22)
AUCss,0-τ, Geometric Least-Square Mean Ratio (90%CI) [1, 17]: 0.93 (0.85, 1.02) ^†
Cmax, Geometric Least-Square Mean Ratio (90%CI) [1, 17]: 1.02 (0.85, 1.23) ^†
Css-min, Geometric Least-Square Mean Ratio (90%CI) [1, 17]: 0.86 (0.80, 0.92) ^†
dose proportionality of PAC-1 plasma concentrations ([1]; between 375 mg/day and 500 mg/day): increased proportionally
PAC-1 plasma concentrations below predicted levels ([1]; single subject in the 625 mg group, same without and with TMZ): approximately 70%
PAC-1 CL/F ([1]; subjects from the 375 and 500 mg/day groups receiving dexamethasone): 3.68 mL/min/kg
recommended phase 2 dose (RP2D) (systemic solid tumors; oral single agent PAC-1, patients with systemic solid tumors): 750 mg/day
relationship between PAC-1 dose and AUC (systemic solid tumors; single agent, doses up to 750 mg/day): linear relationship
extraction, elimination and oral bioavailability [3]: high extraction ratio, hepatically eliminated drug with low and variable oral bioavailability
blood-brain barrier penetration [4]: significantly penetrate the blood-brain barrier
responses in canine cancer patients with glioma (glioma): all treated glioma dogs had responses, including one complete response
substrate of the P-glycoprotein efflux pump [5]: not a substrate
pathways of hepatic metabolism [6]: possible pathways of hepatic metabolism
